This is an account of results in paper PMC10208580 (Science Advances, 2023).

Ends that are not written are not given here.

One experiment concerns the target T1, RyR1 (Oryctolagus cuniculus, UniProt P11716).
T1 construct: from tissue; host or cells: rabbit skeletal muscle heavy SR vesicles
Put plainly: [3H]ryanodine binding to skeletal muscle heavy SR vesicles. It is filed as biochemical, rabbit. The note with it: skeletal muscle heavy SR vesicles, no phosphatase inhibitors.

The next experiment relates to rabbit RyR1. Put plainly: Cryo-EM of RyR1 incubated with calcin variant (density for peptide). The note with it: activating conditions (Ca2+, ATP, caffeine, CaM1234), incubation up to an hour. It is filed as binding. The procedure: For activating conditions (datasets 3 to 5), RyR1 samples were diluted to contain 30 μM buffered free Ca^2+, 80 μM CaM1234, 5 mM caffeine, and 8 mM (dataset 3) or 5 mM (datasets 4 and 5) ATP. Purified IpCa (powder) was first diluted to 1 mM in buffer S5 without EGTA or Ca^2+ and then added to the RyR1 samples to a final concentration of 30 to 80 μM. Samples were incubated in the presence of IpCa (including pT26 and T26E) up to an hour before plunging. RyR1 particles from each condition were assessed by negative-stain EM. Four microliters of purified RyR1 diluted to 0.01 to 0.05 mg/ml was applied to glow-discharged 400-mesh copper grids (Electron Microscopy Sciences) and stained with 0.7% (w/v %) uranyl formate. Negatively stained EM grids were imaged on a Tecnai G2 Spirit microscope (Thermo Fisher Scientific) operated at 120 kV or a Talos with a Ceta camera operated at 120 kV.
For cryo-EM, RyR1 samples with a final concentration of 10 to 12 mg/ml were used. The samples were applied to holey carbon R2/2 grids (Quantifoil). Grids were blotted for 3 s with −5 to −15 blot force applied and subsequently flash-frozen with liquid ethane using a Vitrobot IV (Thermo Fisher Scientific). Grids were transferred to a Titan Krios G2 electron microscope (Thermo Fisher Scientific) operating at 300 kV. […]

A further experiment deals with RyRs. The note with it: higher concentrations of ryanodine; cited from earlier work. The source says: Subconducting states have also been observed in the presence of low concentrations of ryanodine. At higher concentrations, however, addition of ryanodine results in full block ([25]). […] A previous cryo-EM study has resolved density for ryanodine in the pore-forming region, inside the inner vestibule below Gln^4933 ([15]). As this site is >13 Å away from IpCa, ryanodine and IpCa can bind to RyRs simultaneously (fig. S12). Whereas IpCa causes ...

T1 sequence (P11716 whole entry): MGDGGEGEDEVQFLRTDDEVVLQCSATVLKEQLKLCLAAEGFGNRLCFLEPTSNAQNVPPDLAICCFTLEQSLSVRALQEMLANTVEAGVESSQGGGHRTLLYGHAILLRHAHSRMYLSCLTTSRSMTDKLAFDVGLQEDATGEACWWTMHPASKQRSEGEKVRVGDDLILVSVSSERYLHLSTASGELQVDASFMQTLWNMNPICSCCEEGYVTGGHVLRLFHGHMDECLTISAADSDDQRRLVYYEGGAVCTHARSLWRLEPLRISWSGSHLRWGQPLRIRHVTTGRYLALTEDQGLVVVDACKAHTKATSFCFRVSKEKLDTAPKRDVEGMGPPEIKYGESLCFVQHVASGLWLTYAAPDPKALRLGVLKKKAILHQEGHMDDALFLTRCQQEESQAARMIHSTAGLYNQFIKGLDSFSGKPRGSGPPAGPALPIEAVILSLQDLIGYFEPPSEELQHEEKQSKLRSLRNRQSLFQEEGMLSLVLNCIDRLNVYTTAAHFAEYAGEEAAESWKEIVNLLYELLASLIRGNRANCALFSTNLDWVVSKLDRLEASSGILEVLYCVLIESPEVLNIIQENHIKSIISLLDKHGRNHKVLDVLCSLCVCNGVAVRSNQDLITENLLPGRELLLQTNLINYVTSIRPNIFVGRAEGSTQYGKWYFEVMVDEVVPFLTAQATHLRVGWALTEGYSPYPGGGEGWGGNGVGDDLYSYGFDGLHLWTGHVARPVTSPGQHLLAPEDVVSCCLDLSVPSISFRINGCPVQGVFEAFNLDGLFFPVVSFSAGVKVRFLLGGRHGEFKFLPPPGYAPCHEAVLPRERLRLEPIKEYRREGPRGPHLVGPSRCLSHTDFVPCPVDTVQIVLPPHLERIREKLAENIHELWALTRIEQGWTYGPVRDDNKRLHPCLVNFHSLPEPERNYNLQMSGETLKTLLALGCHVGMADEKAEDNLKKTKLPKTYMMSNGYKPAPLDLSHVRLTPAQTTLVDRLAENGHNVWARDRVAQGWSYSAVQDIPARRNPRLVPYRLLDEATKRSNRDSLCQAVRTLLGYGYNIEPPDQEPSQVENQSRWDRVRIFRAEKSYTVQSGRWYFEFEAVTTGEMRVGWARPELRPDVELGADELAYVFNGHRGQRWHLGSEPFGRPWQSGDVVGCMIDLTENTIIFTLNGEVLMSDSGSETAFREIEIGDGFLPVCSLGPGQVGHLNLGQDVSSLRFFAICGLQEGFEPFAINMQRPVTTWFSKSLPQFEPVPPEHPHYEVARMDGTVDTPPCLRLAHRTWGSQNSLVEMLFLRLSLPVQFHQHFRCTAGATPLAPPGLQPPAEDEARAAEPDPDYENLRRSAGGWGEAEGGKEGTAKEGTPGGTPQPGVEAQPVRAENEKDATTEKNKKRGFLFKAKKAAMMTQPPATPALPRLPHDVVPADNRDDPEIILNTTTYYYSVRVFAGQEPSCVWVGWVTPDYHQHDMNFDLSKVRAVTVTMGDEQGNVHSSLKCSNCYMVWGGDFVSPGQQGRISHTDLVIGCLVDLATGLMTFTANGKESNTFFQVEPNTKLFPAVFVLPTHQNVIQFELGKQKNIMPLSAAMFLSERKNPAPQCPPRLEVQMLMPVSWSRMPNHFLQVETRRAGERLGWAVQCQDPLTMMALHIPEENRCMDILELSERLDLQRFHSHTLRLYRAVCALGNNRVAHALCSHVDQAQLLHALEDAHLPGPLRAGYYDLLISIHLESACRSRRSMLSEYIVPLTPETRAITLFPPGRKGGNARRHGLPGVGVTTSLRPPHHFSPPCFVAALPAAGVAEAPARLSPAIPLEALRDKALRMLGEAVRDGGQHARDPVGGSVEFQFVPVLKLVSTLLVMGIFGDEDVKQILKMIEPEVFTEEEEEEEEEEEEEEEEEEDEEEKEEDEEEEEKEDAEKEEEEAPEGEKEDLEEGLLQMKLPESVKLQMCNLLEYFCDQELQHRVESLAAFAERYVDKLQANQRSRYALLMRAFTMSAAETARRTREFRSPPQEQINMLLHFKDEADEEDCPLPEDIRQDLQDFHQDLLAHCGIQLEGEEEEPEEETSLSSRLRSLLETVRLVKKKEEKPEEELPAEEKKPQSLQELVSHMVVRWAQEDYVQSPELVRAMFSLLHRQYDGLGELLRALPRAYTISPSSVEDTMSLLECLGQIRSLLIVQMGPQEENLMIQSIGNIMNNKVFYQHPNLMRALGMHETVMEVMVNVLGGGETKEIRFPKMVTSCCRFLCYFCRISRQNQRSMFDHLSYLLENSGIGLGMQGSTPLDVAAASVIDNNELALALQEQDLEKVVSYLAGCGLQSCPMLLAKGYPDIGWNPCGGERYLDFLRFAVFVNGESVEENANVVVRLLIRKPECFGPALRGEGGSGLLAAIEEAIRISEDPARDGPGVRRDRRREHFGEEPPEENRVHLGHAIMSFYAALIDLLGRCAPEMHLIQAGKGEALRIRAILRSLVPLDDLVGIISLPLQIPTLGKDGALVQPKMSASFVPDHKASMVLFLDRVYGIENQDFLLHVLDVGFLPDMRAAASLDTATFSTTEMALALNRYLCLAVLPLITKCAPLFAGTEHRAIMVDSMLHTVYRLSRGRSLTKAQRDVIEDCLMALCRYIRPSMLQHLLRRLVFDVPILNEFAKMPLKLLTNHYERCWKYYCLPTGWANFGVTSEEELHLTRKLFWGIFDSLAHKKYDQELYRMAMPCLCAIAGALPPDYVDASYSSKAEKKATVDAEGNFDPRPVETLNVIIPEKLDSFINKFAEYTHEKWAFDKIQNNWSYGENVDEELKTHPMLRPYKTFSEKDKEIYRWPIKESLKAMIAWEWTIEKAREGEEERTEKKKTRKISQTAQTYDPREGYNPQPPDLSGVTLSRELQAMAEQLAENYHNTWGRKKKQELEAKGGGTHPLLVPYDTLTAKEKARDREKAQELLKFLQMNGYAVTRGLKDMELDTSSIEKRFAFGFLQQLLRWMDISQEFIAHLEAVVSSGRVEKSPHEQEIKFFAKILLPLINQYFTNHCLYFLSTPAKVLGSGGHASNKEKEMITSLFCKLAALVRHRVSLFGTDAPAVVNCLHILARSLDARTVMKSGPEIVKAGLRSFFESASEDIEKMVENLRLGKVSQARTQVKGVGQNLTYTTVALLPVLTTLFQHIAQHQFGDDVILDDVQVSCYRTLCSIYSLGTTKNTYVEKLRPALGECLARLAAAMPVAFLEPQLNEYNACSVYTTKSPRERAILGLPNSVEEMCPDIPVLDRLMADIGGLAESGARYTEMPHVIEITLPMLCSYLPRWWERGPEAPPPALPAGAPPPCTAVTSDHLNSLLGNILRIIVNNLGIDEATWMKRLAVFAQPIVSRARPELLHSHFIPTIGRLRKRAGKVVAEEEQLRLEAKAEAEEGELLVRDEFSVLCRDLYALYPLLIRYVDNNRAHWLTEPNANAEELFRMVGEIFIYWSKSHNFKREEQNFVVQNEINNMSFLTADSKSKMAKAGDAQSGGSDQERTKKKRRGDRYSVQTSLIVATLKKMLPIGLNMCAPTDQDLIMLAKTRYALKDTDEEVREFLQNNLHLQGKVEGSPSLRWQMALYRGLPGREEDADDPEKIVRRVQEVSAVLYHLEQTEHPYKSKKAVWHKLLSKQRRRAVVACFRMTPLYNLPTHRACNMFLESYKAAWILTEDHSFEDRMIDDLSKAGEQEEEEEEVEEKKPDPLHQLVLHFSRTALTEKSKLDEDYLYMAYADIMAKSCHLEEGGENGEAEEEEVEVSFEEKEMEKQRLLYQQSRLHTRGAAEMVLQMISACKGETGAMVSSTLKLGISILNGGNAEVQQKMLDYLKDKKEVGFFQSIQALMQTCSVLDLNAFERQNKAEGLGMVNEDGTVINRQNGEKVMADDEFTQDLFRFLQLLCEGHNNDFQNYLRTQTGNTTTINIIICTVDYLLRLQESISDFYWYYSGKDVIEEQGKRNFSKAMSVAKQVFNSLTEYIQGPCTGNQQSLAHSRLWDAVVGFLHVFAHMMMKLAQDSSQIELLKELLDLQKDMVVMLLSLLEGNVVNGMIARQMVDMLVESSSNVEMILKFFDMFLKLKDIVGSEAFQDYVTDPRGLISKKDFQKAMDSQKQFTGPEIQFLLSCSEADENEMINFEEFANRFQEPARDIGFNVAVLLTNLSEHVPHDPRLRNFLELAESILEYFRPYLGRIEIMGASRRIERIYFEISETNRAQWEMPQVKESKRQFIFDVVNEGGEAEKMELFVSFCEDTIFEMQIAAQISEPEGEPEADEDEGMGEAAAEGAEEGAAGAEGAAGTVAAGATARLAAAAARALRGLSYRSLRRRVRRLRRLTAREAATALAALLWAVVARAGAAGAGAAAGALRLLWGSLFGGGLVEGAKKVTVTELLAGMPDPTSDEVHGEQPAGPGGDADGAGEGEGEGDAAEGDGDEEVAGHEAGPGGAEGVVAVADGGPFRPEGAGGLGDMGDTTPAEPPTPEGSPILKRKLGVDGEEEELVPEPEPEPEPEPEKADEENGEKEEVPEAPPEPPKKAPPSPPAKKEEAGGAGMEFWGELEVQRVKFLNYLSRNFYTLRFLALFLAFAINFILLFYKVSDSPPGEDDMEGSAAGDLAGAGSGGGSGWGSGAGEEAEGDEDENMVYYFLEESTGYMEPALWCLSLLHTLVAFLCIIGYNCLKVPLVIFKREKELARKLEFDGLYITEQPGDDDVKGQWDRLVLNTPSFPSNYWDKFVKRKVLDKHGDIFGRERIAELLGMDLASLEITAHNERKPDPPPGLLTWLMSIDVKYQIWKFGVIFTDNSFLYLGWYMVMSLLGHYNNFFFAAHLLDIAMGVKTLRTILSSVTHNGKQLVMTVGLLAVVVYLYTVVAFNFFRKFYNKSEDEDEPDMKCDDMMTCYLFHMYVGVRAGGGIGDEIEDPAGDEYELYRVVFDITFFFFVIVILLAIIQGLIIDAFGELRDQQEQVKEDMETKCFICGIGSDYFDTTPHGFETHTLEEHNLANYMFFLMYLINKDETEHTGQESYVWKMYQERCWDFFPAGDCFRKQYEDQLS

For the substance “IpCa-T26E: IpCa variant containing a phosphomimetic (T26E) (GDCLPHLKRCKADNDCCGKKCKRRGENAEKRCR; disulfide (positions not given here); not fully specified; ends not checked; UniProt P59868 1-33, looked up, variant T26E)”, the “Effect on [3H]ryanodine binding” value in the experiment with RyR1 is recorded as “completely inert”. In addition, the “Cryo-EM density for the peptide bound to RyR1” value in the experiment on rabbit RyR1 is reported as “failed to show any density for IpCa”.

In the case of ryanodine, the “Effect on channel conductance at higher concentrations” value with RyRs is “full block”.
